Data on 1 molecule can be found in ChEMBL document CHEMBL3817804 (Medchemcomm, 2016).

One may read the Ki as a measure of affinity in units of concentration, obtained from inhibition or displacement. Higher therefore signals weaker binding.

In series [1] the target is T1, Solute carrier family 15 member 1 (Oryctolagus cuniculus, UniProt P36836).
T1 sequence (P36836 whole entry): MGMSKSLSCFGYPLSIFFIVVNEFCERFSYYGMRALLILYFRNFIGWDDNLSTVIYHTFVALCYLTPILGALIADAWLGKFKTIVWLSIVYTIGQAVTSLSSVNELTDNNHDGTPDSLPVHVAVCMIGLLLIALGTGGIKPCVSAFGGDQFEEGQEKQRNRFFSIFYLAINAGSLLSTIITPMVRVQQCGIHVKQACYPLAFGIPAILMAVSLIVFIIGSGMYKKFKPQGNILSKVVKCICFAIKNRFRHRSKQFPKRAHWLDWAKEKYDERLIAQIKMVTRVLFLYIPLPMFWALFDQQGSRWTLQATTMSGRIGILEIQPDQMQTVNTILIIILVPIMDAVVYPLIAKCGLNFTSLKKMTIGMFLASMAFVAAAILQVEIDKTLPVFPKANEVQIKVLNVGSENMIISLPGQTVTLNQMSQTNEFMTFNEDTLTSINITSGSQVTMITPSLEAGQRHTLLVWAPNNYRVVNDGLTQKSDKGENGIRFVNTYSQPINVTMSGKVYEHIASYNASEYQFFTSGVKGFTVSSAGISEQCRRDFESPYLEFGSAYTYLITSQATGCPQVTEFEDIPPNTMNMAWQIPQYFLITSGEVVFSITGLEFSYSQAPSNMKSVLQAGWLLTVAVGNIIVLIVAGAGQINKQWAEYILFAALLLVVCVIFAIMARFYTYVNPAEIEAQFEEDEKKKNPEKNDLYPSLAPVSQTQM
Briefly: Inhibition of [3H]-D-Phe-L-Gln uptake at rabbit PepT1 expressed in Xenopus laevis oocytes at pH 5.5 measured after 1 hr by scintillation counting method. The series is classed as cell-based.

In series [2] the target is T1, Solute carrier family 15 member 1. In words: Substrate activity at rabbit PepT1 expressed in Xenopus laevis oocytes assessed as drug transportation across membrane under holding potential at -30 mV at 2 mM by two electrode voltage-clamp method. Type of series: ADME, cell-based. The conditions noted are these: 2000 µM. For orientation: Two-electrode voltage clamp is typically applied to oocytes expressing channels or transporters.

For `C/C=C/C[C@H](C)[C@@H](OC(=O)CNC(=O)C[C@@H](NC(=S)[C@H](C)N)C(=O)O)[C@@H]1C(=O)N[C@@H](CC)C(=O)N(C)CC(=O)N(C)[C@H](CC(C)C)C(=O)N[C@H](C(C)C)C(=O)N(C)[C@H](CC(C)C)C(=O)N[C@H](C)C(=O)N[C@H](C)C(=O)N(C)[C@H](CC(C)C)C(=O)N(C)[C@H](CC(C)C)C(=O)N(C)[C@H](C(C)C)C(=O)N1C`, the affinity in series [1] corresponds to a Ki of 1110 µM. The Activity in series [2] worked out at 322 nA.
